From patent US20230416329A1, “A PEPTIDE WITH DISULFIDE BONDS AND INHIBITORY ACTIVITY AGAINST SERINE PROTEASES, DERIVED HYBRID PEPTIDES THEREOF, AND USES THEREOF” (INSTITUTE OF MATERIA MEDICA , CHINESE ACADEMY OF MEDICAL …, priority 2020, published 2023) come the findings set out here.

Like-named read-outs stand apart in the source and are kept apart here. Bridge positions count the residues as written; N and C are the ends. Square brackets hold non-standard residues; d marks the D form. Peptide text beside a SMILES is read from it. hCys = N[C@@H](CCS)C(=O)O; Nle = CCCC[C@H](N)C(=O)O

In the assay the target is T1, bovine trypsin (Bos taurus, UniProt P00760).
T1 sequence (P00760 24-246): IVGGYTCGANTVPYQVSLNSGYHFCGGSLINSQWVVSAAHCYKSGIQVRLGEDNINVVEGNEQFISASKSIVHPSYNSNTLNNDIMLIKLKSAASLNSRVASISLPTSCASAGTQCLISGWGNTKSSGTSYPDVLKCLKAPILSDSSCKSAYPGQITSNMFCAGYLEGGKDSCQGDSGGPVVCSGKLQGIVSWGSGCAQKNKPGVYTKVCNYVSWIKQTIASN
Briefly: Trypsin inhibitory activity of peptides (BApNA hydrolysis, OD405; IC50, Ki, residual activity). The format is biochemical. The conditions noted are these: for Ki: Ki=IC50/(1+S/Km), Km 0.33 mM, read-out: Ki; for IC50: trypsin 50 nM, BApNA 1.22 mM, read-out: IC50. An outline of the steps: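 Trypsin (50 nM final) preincubated with peptides at 37 °C in 50 mM Tris-HCl pH 7.8, 20 mM CaCl2; BApNA added (1.22 mM final), 260 min at 37 °C, then OD405 read. Residual activity from enzyme-only and substrate-only controls; IC50 fitted and converted to Ki via Ki=IC50/(1+S/Km), Km measured separately for BApNA.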

A word on the Ki: it is the dissociation constant of the complex between target and ligand, obtained from inhibition or displacement. The IC50 is the concentration at which inhibition is half-maximal.

With `CC[C@H](C)[C@@H]1NC(=O)[C@@H]2CCCN2C(=O)[C@@H]2CCCN2C(=O)[C@H]([C@@H](C)CC)NC(=O)[C@H](C)NC(=O)[C@H](CCCCN)NC(=O)[C@H]([C@@H](C)O)NC(=O)[C@H](C)NC(=O)[C@H](CCCNC(=N)N)NC(=O)CNC(=O)[C@@H](N)CSSC[C@@H](C(=O)N[C@@H](Cc2ccccc2)C(=O)O)NC1=O` [BT27] (H-CGRATKAIPPICF-OH; disulfide 1-12; C-terminus assumed), the “inhibitory activity against trypsin (in words)” value (shortened to “inhibitory activity”) is “reduced their anti-trypsin activities” and the inhibition constant (Ki) is 0.06 µM. The “inhibitory activity” value (listed as SEQ ID NO: 27) was “excellent trypsin inhibitory activities”. Besides, the Residual trypsin activity (peptide 0.000098 μM) was 101.0 ± 0.7%. For the same molecule, the Residual trypsin activity (peptide 0.00098 μM) was found to be 98.9 ± 1.5%. The Residual trypsin activity (peptide 0.0098 μM) was found to be 103.5 ± 2.4%. Besides, the Residual trypsin activity (peptide 0.098 μM) was determined as 92.0 ± 1.9%. Moreover, the Residual trypsin activity (peptide 0.195 μM) was determined as 74.1 ± 1.3%. Further, the Residual trypsin activity (peptide 0.293 μM) was determined as 49.2 ± 3.0%. For the same molecule, the Residual trypsin activity (peptide 0.390 μM) turned out to be 19.9 ± 6.3%. Moreover, where the note is “peptide 0.98 μM”, the Residual trypsin activity turned out to be 1.3 ± 0.3%. Also, under “peptide 9.76 μM”, the Residual trypsin activity came out at 0.1 ± 0.0%. Moreover, under “peptide 97.56 μM”, the Residual trypsin activity is listed as 0.1 ± 0.0%.

Regarding `CCCC[C@@H]1NC(=O)[C@H](CO)NC(=O)[C@H](CCCCN)NC(=O)[C@H]([C@@H](C)O)NC(=O)[C@H](C)NC(=O)[C@H](CCCNC(=N)N)NC(=O)CNC(=O)[C@@H](N)CSSC[C@@H](C(=O)N[C@@H](Cc2ccccc2)C(=O)O)NC(=O)[C@H]([C@@H](C)CC)NC(=O)[C@@H]2CCCN2C(=O)[C@@H]2CCCN2C1=O` [BT28] (H-CGRATKS[Nle]PPICF-OH; disulfide 1-12; C-terminus assumed), the “inhibitory activity” value is reported as “reduced their anti-trypsin activities”, the Ki is 0.06 µM and the half-inhibitory concentration (IC50) came to 0.29 µM. For the setting “listed as SEQ ID NO: 28”, the “inhibitory activity” value is “excellent trypsin inhibitory activities”. In addition, the Residual trypsin activity (peptide 0.00098 μM) stood at 102.3 ± 0.7%. In addition, under “peptide 0.0098 μM”, the Residual trypsin activity is listed as 101.8 ± 0.1%. The Residual trypsin activity (peptide 0.098 μM) was determined as 92.2 ± 5.5%. Further, the Residual trypsin activity (peptide 0.195 μM) is 77.6 ± 8.3%. For the same molecule, the Residual trypsin activity (peptide 0.293 μM) came to 52.7 ± 5.9%. In addition, under “peptide 0.390 μM”, the Residual trypsin activity is listed as 16.7 ± 3.7%. For the same molecule, the Residual trypsin activity (peptide 0.98 μM) came to 0.7 ± 0.0%. The Residual trypsin activity (peptide 9.76 μM) is on record as 0.1 ± 0.0%. For the same molecule, the Residual trypsin activity (peptide 97.56 μM) was 0.0 ± 0.0%.

As to `CC[C@H](C)[C@@H]1NC(=O)[C@@H]2CCCN2C(=O)[C@@H]2CCCN2C(=O)[C@H]([C@@H](C)CC)NC(=O)[C@H](CO)NC(=O)[C@H](CCCCN)NC(=O)[C@H]([C@@H](C)O)NC(=O)[C@H](C)NC(=O)[C@H](CCCNC(=N)N)NC(=O)CNC(=O)[C@@H](N)CCSSCC[C@@H](C(=O)O)NC(=O)[C@H](Cc2ccccc2)NC(=O)[C@H](C)NC1=O` [BT29] (H-[hCys]GRATKSIPPIAF[hCys]-OH; disulfide 1-14; N-terminus assumed), the “inhibitory activity” value is “still maintained good inhibitory activity against trypsin”.

In the case of `CC[C@H](C)[C@@H]1NC(=O)[C@@H]2CCCN2C(=O)[C@@H]2CCCN2C(=O)[C@H]([C@@H](C)CC)NC(=O)[C@H](CO)NC(=O)[C@H](CCCCN)NC(=O)[C@H]([C@@H](C)O)NC(=O)[C@H](C)NC(=O)[C@H](CCCNC(=N)N)NC(=O)CNC(=O)[C@@H](N)CSSC[C@@H](C(=O)O)NC(=O)[C@H](Cc2ccccc2)NC1=O` [BT30] (H-CGRATKSIPPIFC-OH; disulfide 1-13 (inferred); N-terminus and C-terminus assumed), the IC50 was above 50 µM.

For `CC[C@H](C)[C@@H]1NC(=O)[C@H](CO)NC(=O)[C@H](CCCCN)NC(=O)[C@H]([C@@H](C)O)NC(=O)[C@H](C)NC(=O)[C@H](CCCNC(=N)N)NC(=O)CNC(=O)[C@@H](N)CSSC[C@@H](C(=O)O)NC(=O)[C@H](Cc2ccccc2)NC(=O)[C@H](C)NC(=O)[C@@H]2CCCN2C(=O)[C@@H]2CCCN2C1=O` [BT31] (H-CGRATKSIPPAFC-OH; disulfide 1-13 (inferred); N-terminus and C-terminus assumed), the IC50 is above 50 µM.

With `CC[C@H](C)[C@@H]1NC(=O)[C@@H]2CCCN2C(=O)[C@@H]2CCCN2C(=O)[C@H]([C@@H](C)CC)NC(=O)[C@H](CO)NC(=O)[C@H](CCCCN)NC(=O)[C@H]([C@@H](C)O)NC(=O)[C@H](C)NC(=O)[C@H](CCCNC(=N)N)NC(=O)CNC(=O)[C@@H](N)CSSC[C@@H](C(=O)O)NC(=O)CNC(=O)[C@H](Cc2ccccc2)NC(=O)[C@H](C)NC1=O` [BT32] (H-CGRATKSIPPIAFGC-OH; disulfide 1-15; N-terminus and C-terminus assumed), the “inhibitory activity” value is reported as “still maintained good inhibitory activity against trypsin”.

Regarding `CC[C@H](C)[C@@H]1NC(=O)[C@@H]2CCCN2C(=O)[C@@H]2CCCN2C(=O)[C@H]([C@@H](C)CC)NC(=O)[C@H](CO)NC(=O)[C@H](CCCCN)NC(=O)[C@H]([C@@H](C)O)NC(=O)[C@H](C)NC(=O)[C@H](CCCNC(=N)N)NC(=O)CNC(=O)[C@@H](N)CCSSCC[C@@H](C(=O)O)NC(=O)CNC(=O)[C@H](Cc2ccccc2)NC(=O)[C@H](C)NC1=O` [BT33] (H-[hCys]GRATKSIPPIAFG[hCys]-OH; disulfide 1-15; N-terminus assumed), the “inhibitory activity” value is “still maintained good inhibitory activity against trypsin”.

`CC[C@H](C)[C@@H]1NC(=O)[C@H](CO)NC(=O)[C@H](CCCCN)NC(=O)[C@H]([C@@H](C)O)NC(=O)[C@H](C)NC(=O)[C@H](CCCNC(=N)N)NC(=O)CNC(=O)[C@@H](N)CSSC[C@@H](C(=O)O)NC(=O)[C@H](CCCNC(=N)N)NC(=O)[C@H](C)NC(=O)[C@H](CCC(N)=O)NC(=O)[C@@H]2CCCN2C(=O)[C@@H]2CCCN2C1=O` [BT34] (H-CGRATKSIPPQARC-OH; disulfide 1-14): the half-inhibitory concentration (IC50) is above 50 µM.

Consider `CC[C@H](C)[C@@H]1NC(=O)[C@H](CO)NC(=O)[C@H](CCCCN)NC(=O)[C@H]([C@@H](C)O)NC(=O)[C@H](Cc2c[nH]c3ccccc23)NC(=O)CNC(=O)[C@@H](N)CSSC[C@@H](C(=O)O)NC(=O)[C@@H]2CCCN2C(=O)[C@H](CCCCN)NC(=O)[C@@H]2CCCN2C(=O)[C@@H]2CCCN2C1=O` [BT37] (H-CGWTKSIPPKPC-OH; disulfide 1-12), for which the IC50 is above 50 µM.

On to `CC[C@H](C)[C@@H]1NC(=O)[C@H](CO)NC(=O)[C@H](CCCCN)NC(=O)[C@H]([C@@H](C)O)NC(=O)[C@H](Cc2c[nH]c3ccccc23)NC(=O)[C@H](CCCNC(=N)N)NC(=O)CNC(=O)[C@@H](N)CSSC[C@@H](C(=O)O)NC(=O)[C@@H]2CCCN2C(=O)[C@H](CCCCN)NC(=O)[C@@H]2CCCN2C(=O)[C@@H]2CCCN2C1=O` [BT38] (H-CGRWTKSIPPKPC-OH; disulfide 1-13 (inferred); N-terminus and C-terminus assumed), for which the IC50 is above 50 µM.

Consider `CC[C@H](C)[C@@H]1NC(=O)[C@H](CO)NC(=O)[C@H](CCCCN)NC(=O)[C@H]([C@@H](C)O)NC(=O)[C@H](Cc2c[nH]c3ccccc23)NC(=O)[C@H](CCCNC(=N)N)NC(=O)CNC(=O)[C@@H](N)CSSC[C@@H](C(=O)O)NC(=O)[C@H](Cc2ccccc2)NC(=O)[C@H](C)NC(=O)[C@@H]2CCCN2C(=O)[C@@H]2CCCN2C1=O` [BT39] (H-CGRWTKSIPPAFC-OH; disulfide 1-13 (inferred); N-terminus and C-terminus assumed), for which the 50% inhibitory concentration (IC50) was above 50 µM.

`CC[C@H](C)[C@@H]1NC(=O)[C@@H]2CCCN2C(=O)[C@@H]2CCCN2C(=O)[C@H]([C@@H](C)CC)NC(=O)[C@H](CO)NC(=O)[C@H](CCCCN)NC(=O)[C@H]([C@@H](C)O)NC(=O)[C@H](Cc2c[nH]c3ccccc23)NC(=O)[C@H](CCCNC(=N)N)NC(=O)CNC(=O)[C@@H](N)CSSC[C@@H](C(=O)O)NC(=O)[C@H](Cc2ccccc2)NC1=O` [BT40] (H-CGRWTKSIPPIFC-OH; disulfide 1-13 (inferred); N-terminus and C-terminus assumed): the half-maximal inhibitory concentration (IC50) is above 50 µM.

For the molecule `CC[C@H](C)[C@@H]1NC(=O)[C@H](CCCCN)NC(=O)[C@@H]2CCCN2C(=O)[C@@H](NC(=O)[C@H](CCCNC(=N)N)NC(=O)CN)CSSC[C@@H](C(=O)N[C@@H](Cc2ccccc2)C(=O)O)NC(=O)[C@H](CCCCN)NC(=O)[C@H](CCCCN)NC(=O)[C@H](CC(C)C)NC1=O` [BT41] (H-GRCPKILKKCF-OH; disulfide 3-10), the 50% inhibitory concentration (IC50) is above 50 µM.

Turning to `CC[C@H](C)[C@@H]1NC(=O)[C@H](CCCCN)NC(=O)[C@@H]2CCCN2C(=O)[C@H](C)NC(=O)[C@H](CCCNC(=N)N)NC(=O)CNC(=O)[C@@H](N)CSSC[C@@H](C(=O)N[C@@H](Cc2ccccc2)C(=O)O)NC(=O)[C@H](CCCCN)NC(=O)[C@H](CCCCN)NC(=O)[C@H](CC(C)C)NC1=O` [BT42] (H-CGRAPKILKKCF-OH; disulfide 1-11), the half-inhibitory concentration (IC50) is above 50 µM.

Take `CC[C@H](C)[C@@H]1NC(=O)[C@H](CCCCN)NC(=O)[C@@H]2CCCN2C(=O)[C@@H](NC(=O)[C@H](CCCNC(=N)N)NC(=O)CN)CSSC[C@@H](C(=O)N[C@@H](Cc2ccccc2)C(=O)O)NC(=O)[C@H](CCCNC(=N)N)NC(=O)[C@H](CCC(N)=O)NC(=O)[C@H](CC(C)C)NC1=O` [BT43] (H-GRCPKILQRCF-OH; disulfide 3-10): the 50% inhibitory concentration (IC50) was above 50 µM.
